According to article PMC5334605, “Indolediketopiperazine Alkaloids from Eurotium cristatum EN-220, an Endophytic Fungus Isolated from the Marine Alga Sargassum thunbergii” (Marine Drugs, 2017):
Converted amounts (≈) assume the structure as drawn.

Tests used:
[1] = test system: brine shrimp (Artemia salina); type: in vivo; conditions: for brine shrimp lethality (LD50): Artemia salina, n.a. = no activity; for lethal activity against brine shrimp: result in words
Panagrellus redivivus = test: Nematicidal assay; type: in vivo; conditions: for nematicidal activity (LD50): Panagrellus redivivus, n.a. = no activity; for nematicidal activity against Panagrellus redivivus: result in words
[2] = DPPH radical scavenging assay; conditions: for DPPH radical scavenging activity (IC50): positive control ascorbic acid
S. aureus = test: Antimicrobial broth microdilution assay; type: cell-based, Staphyloccocus aureus; conditions: Staphylococcus aureus, read-out: MIC against S. aureus
Magnaporthe grisea = test: microbe, parasite or virus in culture; type: cell-based; conditions: Pyricularia oryzae, read-out: MIC against Magnaporthe grisea

SMILES	brine shrimp lethality (LD50) [1] [µg/mL]	lethal activity against brine shrimp [1]	nematicidal activity (LD50) (Panagrellus redivivus) [µg/mL]	nematicidal activity against Panagrellus redivivus (Panagrellus redivivus)	DPPH radical scavenging activity (IC50) [2] [µg/mL]	MIC (S. aureus) [µg/mL]	MIC (Magnaporthe grisea) [µg/mL]	radical scavenging activity against DPPH radicals ([2]; result in words)
C=CC(C)(C)c1[nH]c2c(CC=C(C)C)cc(CC=C(C)C)cc2c1C[C@@H]1NC(=O)C(=C)NC1=O [Compound 10, didehydroechinulin]	27.1	potent lethal activity	126.4	weak nematicidal effect	13.3			
C=CC(C)(C)c1[nH]c2cc(CC=C(C)C)ccc2c1/C=C1\NC(=O)C(C)(OC)NC1=O (centres unmarked) [Compound 2, isovariecolorin I]	19.4	potent lethal activity	110.3	weak nematicidal effect	20.6			
C=CC(C)(C)c1[nH]c2c(CC=C(C)CO)cc(CC=C(C)C)cc2c1CC1NC(=O)C(C)NC1=O (centres unmarked) [Compound 4, 29-hydroxyechinulin]	140.6	weaklethal activities						
C=CC(C)(C)c1[nH]c2ccccc2c1/C=C1\NC(=O)C(C)(OC)NC1=O (centres unmarked) [Compound 13, variecolorin H]					18.7	256 (≈ 724 µM)		
C=CC(C)(C)c1[nH]c2cc(CC=C(C)C)ccc2c1C=c1[nH]c(=O)c(=C)[nH]c1=O [Compound 8, neoechinulin C]	70.1		>200		12.1			
O=C1O[C@H]([C@@H](O)CO)C(O)=C1O [Ascorbic Acid, ascorbic acid, reference compound]					2.0			
C=CC(C)(C)c1[nH]c2c(CC=C(C)C)cc(CC=C(C)C)cc2c1C[C@@H]1NC(=O)[C@H](C)NC1=O [Compound 11, echinulin]		did not show any activity		did not show any activity	13.8	256 (≈ 555 µM)		
C=CC(C)(C)c1[nH]c2ccccc2c1/C=c1\[nH]c(=O)c(=C)[nH]c1=O [Compound 7, neoechinulin B]	105.2	weaklethal activities	>200		10.9			
C=CC(C)(C)c1[nH]c2c(C[C@H](O)C(C)(C)O)cccc2c1/C=C1\NC(=O)[C@H](C)NC1=O [Compound 6, rubrumazine B]					28.5		64 (≈ 150 µM)	
C=CC(C)(C)c1[nH]c2c(CC=C(C)CO)cc(CC=C(C)C)cc2c1CC1NC(=O)C(C)NC1=O (centres unmarked) [Compound 3, 30-Hydroxyechinulin]	138.1	weaklethal activities						
C=CC(C)(C)c1[nH]c2c(CC=C(C)C)cc(CC=C(C)C)cc2c1C=C1NC(=O)C(C)NC1=O (centres unmarked) [Compound 12, dehydroechinulin]		did not show any activity		did not show any activity	6.4	256 (≈ 557 µM)		potent radical scavenging activity
